Series [1] is described as follows: Conversion to Ampicillin in 40% mouse blood (bioautography). The class given is in vitro ADME. As to conditions: 40% mouse blood in pH 7.4 phosphate buffer, 37° C., 10 minutes. As for the experimental part:
The resulting Ampicillin ester hydrochloride was incubated in 40% mouse blood in pH 7.4 phosphate buffer at 37° C. for 10 minutes, and then subjected to bioautography.

A short description of series [2]: Concentration in blood in oral administration (blood Ampicillin level ratio). The class given is in vivo, mice (ddy). As for the experimental part: Each of the test compounds was orally administered in a dose of 50 mg/kg calculated as Ampicillin to four week old mice (ddy, body weight about 20 g, five per group) which had been caused to fast overnight (the amount is equivalent to 0.2 ml of a 5 mg/ml aqueous solution of Ampicillin). The blood was taken from the experimental animals periodically, and the concentration of Ampicillin in the serum was measured by a bioassay method. The blood Ampicillin level ratio was calculated from the following equation. [formula]

A short description of series [3]: in vitro. Type of series: in vitro ADME. As to conditions: for metabolised at 1 h / metabolised at 2 h / metabolised at 4 h / metabolised at 6 h / metabolised at 20 h: simulated gastric juice, pH 1.2. As for the experimental part: Each of the test compounds was dissolved to a predetermined concentration in an acidic aqueous medium (simulated gastric juice) having a pH of 1.2 prepared by adding 2.0 g of sodium chloride, 24 ml of 10% hydrochloric acid and 3.2 g of pepsin to 1000 ml of water. While the solution was shaken at 37° C., it was periodically sampled. The sampled solution was subjected to high-speed liquid chromatography using a reversed phase partition column, and the hydrolysis ratio of the compound was determined from a decrease in the peak height of the compound in the chromatogram.

Series [4] in a line: in vitro. The class given is in vitro ADME. As to conditions: for metabolised at 5 min / metabolised at 10 min / metabolised at 20 min / metabolised at 0.5 h / metabolised at 1 h: simulated intestinal juice, pH 7.5. As for the experimental part: The procedure of (a) was repeated except that a basic aqueous medium (simulated intestinal juice) having a pH of 7.50 prepared by adding 35.8 g of disodium phosphate, 6.0 ml of 10% hydrochloric acid and 2.8 g of pancreatin to 1000 ml of water was used instead of the acidic aqueous medium.

The nature of the next series: in vivo. Conditions: mouse, mice, aqueous solution.
The conditions of series [5]: cited from earlier work.

Where a name gives a salt, the structure may show the parent alone. Read-outs that look alike come from different tables or passages of the source.

For orientation: LD50 means the dose expected to kill half of the subjects tested.

On to `CC1(C)S[C@@H]2[C@H](NC(=O)[C@H](N)c3ccccc3)C(=O)N2[C@H]1C(=O)OC1CCCc2oc(=O)oc21` (stereo partly shown) [Ampicillin (2,3-carbonyldioxy-2-cyclohexenyl)ester hydrochloride], for which the “Conversion to Ampicillin” value in series [1] is recorded as “completely converted to Ampicillin”.
For the compound `CC1(C)S[C@@H]2[C@H](NC(=O)[C@H](N)c3ccccc3)C(=O)N2[C@H]1C(=O)OCc1oc(=O)oc1-c1ccccc1` [B, Ampicillin (2-oxo-5-phenyl-1,3-dioxolen-4-yl)methyl ester hydrochloride], the “Duration of high Ampicillin concentrations in blood” value in series [2] is listed as “maintained over a long period of time”. Moreover, in “in vitro [3]”, the “Rate of hydrolysis relative to that of Ampicillin phthalidyl ester” value is “about one half”, the metabolised at 1 h is 9%, the metabolised at 2 h was 20% and the metabolised at 4 h is 30%. In “in vitro [3]”, the metabolised at 6 h is 35% and the metabolised at 20 h is 65%. For the same compound, in “in vitro [4]”, the “Rate of hydrolysis relative to that of Ampicillin phthalidyl ester” value was “about one half”, the metabolised at 5 min is 18%, the metabolised at 10 min is 37% and the metabolised at 20 min was 53%. Besides, in the series “in vitro [4]”, the metabolised at 0.5 h was 70% and the metabolised at 1 h is 90%. For the same compound, in the series “in vivo” (intravenous), the LD50 was determined as 270 mg/kg. In “in vivo” (ip, intraperitoneal), the LD50 came out at 1770 mg/kg. This compound also yielded a median lethal dose (LD50) in the series “in vivo” (oral) above 5000 mg/kg. Besides, the “Conversion to Ampicillin” value in series [1] is recorded as “completely converted to Ampicillin”.
In the case of `CC1(C)S[C@@H]2[C@H](NC(=O)[C@H](N)c3ccccc3)C(=O)N2[C@H]1C(=O)OC1OC(=O)c2ccccc21` (stereo partly shown) [Talampicillin, Ampicillin phthalidyl ester], the “Blood Ampicillin concentrations in oral vs intramuscular administration” value in series [5] (in vivo, po) is listed as “comparable blood Ampicillin concentrations in oral administration to those obtained by intramuscular administration”.
Consider `CC1(C)S[C@@H]2[C@H](NC(=O)[C@H](N)c3ccccc3)C(=O)N2[C@H]1C(=O)OCc1coc(=O)o1` [Ampicillin (2-oxo-1,3-dioxolen-4-yl)methyl ester hydrochloride], for which the “Conversion to Ampicillin” value in series [1] is listed as “completely converted to Ampicillin”.
For `CC1(C)S[C@@H]2[C@H](NC(=O)[C@H](N)c3ccccc3)C(=O)N2[C@H]1C(=O)OC1OC(=O)c2ccccc21` (stereo partly shown) [C, Ampicillin phthalidyl ester hydrochloride, reference compound], in the series “in vitro [3]”, the metabolised at 1 h is 18%, the metabolised at 2 h was 31%, the metabolised at 4 h is 43% and the metabolised at 6 h is 55%. The compound further registered a metabolised at 20 h in the series “in vitro [3]” of 100%. In “in vitro [4]”, this compound registered a metabolised at 5 min of 39%, a metabolised at 10 min of 61%, a metabolised at 20 min of 90% and a metabolised at 0.5 h of 95%. Moreover, the metabolised at 1 h in the series “in vitro [4]” was 100%.
With `Cc1oc(=O)oc1COC(=O)[C@@H]1N2C(=O)[C@@H](NC(=O)[C@H](N)c3ccccc3)[C@H]2SC1(C)C` [A, Ampicillin (5-methyl-2-oxo-1,3-dioxolen-4-yl)methyl ester hydrochloride], the “Duration of high Ampicillin concentrations in blood” value in series [2] is given as “maintained over a long period of time”. In the series “in vitro [3]”, this compound displayed a metabolised at 1 h of 7%, a metabolised at 2 h of 15%, a metabolised at 4 h of 20% and a metabolised at 6 h of 28%. This compound had a metabolised at 20 h in the series “in vitro [3]” of 52%. In the series “in vitro [4]”, this compound had a metabolised at 5 min of 16%, a metabolised at 10 min of 32%, a metabolised at 20 min of 48% and a metabolised at 0.5 h of 65%. In the series “in vitro [4]”, this compound registered a metabolised at 1 h of 80%. In series [1], the “Conversion to Ampicillin” value is “completely converted to Ampicillin”.
Take `CC(C)(C)C(=O)OCOC(=O)[C@@H]1N2C(=O)[C@@H](NC(=O)[C@H](N)c3ccccc3)[C@H]2SC1(C)C` [Pivampicillin, Ampicillin pivaloyloxymethyl ester]: the “Blood Ampicillin concentrations in oral vs intramuscular administration” value in series [5] (oral administration, British Pat. Nos. 1,215,812 and 1,364,672) is listed as “comparable blood Ampicillin concentrations in oral administration to those obtained by intramuscular administration”.

The values above are taken from patent publication US4389408A, “Novel ampicillin esters and production thereof” (priority 1980, dated 1983).
